This note sets out measurements from ChEMBL document CHEMBL2073890, “Multispecific amphipathic substrate transport by an organic anion transporter of human liver” (J Hepatol, 1996).

Common to all, as to type: functional, cell-based, Oocyte
For data set [1], the target named is T1, Solute carrier organic anion transporter family member 1A2 (OATP1A2) (Homo sapiens, UniProt P46721).
T1 sequence (P46721 whole entry): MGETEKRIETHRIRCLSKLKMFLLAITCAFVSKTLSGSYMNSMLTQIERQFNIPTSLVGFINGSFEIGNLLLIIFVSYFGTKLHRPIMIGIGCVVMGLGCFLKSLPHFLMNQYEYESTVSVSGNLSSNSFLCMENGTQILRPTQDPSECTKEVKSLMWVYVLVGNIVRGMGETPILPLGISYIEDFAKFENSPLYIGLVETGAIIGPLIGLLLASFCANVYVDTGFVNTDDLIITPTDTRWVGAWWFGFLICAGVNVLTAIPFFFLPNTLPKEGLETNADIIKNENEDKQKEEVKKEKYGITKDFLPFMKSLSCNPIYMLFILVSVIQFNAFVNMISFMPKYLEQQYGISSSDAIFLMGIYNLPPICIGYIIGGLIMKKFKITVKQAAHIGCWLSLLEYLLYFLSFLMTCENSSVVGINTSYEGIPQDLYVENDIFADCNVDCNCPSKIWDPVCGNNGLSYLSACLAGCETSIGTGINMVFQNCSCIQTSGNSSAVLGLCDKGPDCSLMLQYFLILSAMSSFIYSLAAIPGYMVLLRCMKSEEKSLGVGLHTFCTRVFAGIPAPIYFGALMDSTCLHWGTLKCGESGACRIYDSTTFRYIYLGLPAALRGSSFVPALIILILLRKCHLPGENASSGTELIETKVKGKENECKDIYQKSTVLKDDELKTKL
The data set is described as follows: TP_TRANSPORTER: uptake in Xenopus laevis oocytes.

Data set [2] addresses T1, Solute carrier organic anion transporter family member 1A2 (OATP1A2). In words: TP_TRANSPORTER: inhibition of Ouabain uptake (Ouabain: 100 uM, TCDC: 100 uM) in Xenopus laevis oocytes. The conditions noted are these: probe Ouabain.
For data set [3] the target is unchanged. The data set is described as follows: TP_TRANSPORTER: inhibition of E1S uptake (E1S: 0.2 uM, TCDC: 100 uM) in Xenopus laevis oocytes. The note with it: probe E1S (estrone sulfate).

In the case of `C[C@]12CC[C@@H]3c4ccc(OS(=O)(=O)O)cc4CC[C@H]3[C@@H]1CCC2=O` [ESTRONE SULFURIC ACID], the Km (as a rule, the substrate concentration at which the rate is half of its maximum) in data set [1] was 59 µM.

Turning to `C[C@@H]1O[C@@H](O[C@H]2C[C@@H](O)[C@]3(CO)[C@H]4[C@H](O)C[C@]5(C)[C@@H](C6=CC(=O)OC6)CC[C@]5(O)[C@@H]4CC[C@]3(O)C2)[C@H](O)[C@H](O)[C@H]1O` [OUABAIN], in data set [1], the Km is 5500 µM.

In the case of `C[C@H](CCC(=O)NCCS(=O)(=O)O)[C@H]1CC[C@H]2[C@@H]3[C@H](O)C[C@@H]4C[C@H](O)CC[C@]4(C)[C@H]3CC[C@]12C` [TAUROCHENODEOXYCHOLATE], the figures for the inhibition at 100 µM in data set [2] and in data set [3] were 100% and 91%, respectively.
